Test results taken from PubChem BioAssay (NCI).
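Results reflect a 48-hour exposure of cells in 96-well plates to compound at five concentrations. TGI: concentration producing complete growth inhibition.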

Key:
Assay in all cases: inhibition of tumour cell growth, NCI panel, 48 h
OVCAR-5 ovarian = tested on: OVCAR-5 ovarian
SNB-75 CNS = tested on: SNB-75 CNS
CAKI-1 renal = tested on: CAKI-1 renal
MDA-N = tested on: MDA-N
UACC-257 melanoma = tested on: UACC-257 melanoma
SW-620 colon = tested on: SW-620 colon
HT29 colon = tested on: HT29 colon
SNB-19 CNS = tested on: SNB-19 CNS
SF-539 CNS = tested on: SF-539 CNS
NCI-H522 lung = tested on: NCI-H522 lung
UO-31 renal = tested on: UO-31 renal
SF-268 CNS = tested on: SF-268 CNS
LOX IMVI melanoma = tested on: LOX IMVI melanoma
CCRF-CEM leukemia = tested on: CCRF-CEM leukemia
ACHN renal = tested on: ACHN renal
NCI-H460 lung = tested on: NCI-H460 lung
HOP-92 NSCLC = tested on: HOP-92 NSCLC
A549 NSCLC = tested on: A549 NSCLC
RPMI-8226 leukemia = tested on: RPMI-8226 leukemia
NCI-H226 lung = tested on: NCI-H226 lung
U251 CNS = tested on: U251 CNS
OVCAR-4 ovarian = tested on: OVCAR-4 ovarian
OVCAR-3 ovarian = tested on: OVCAR-3 ovarian
COLO 205 colon = tested on: COLO 205 colon
IGROV1 ovarian = tested on: IGROV1 ovarian
HS 578T breast = tested on: HS 578T breast
SR leukemia = tested on: SR leukemia
NCI/ADR-RES ovarian = tested on: NCI/ADR-RES ovarian
RXF 393 renal = tested on: RXF 393 renal
HCT-15 colon = tested on: HCT-15 colon
UACC-62 melanoma = tested on: UACC-62 melanoma
K-562 leukemia = tested on: K-562 leukemia
HCT-116 colon = tested on: HCT-116 colon
SN12C renal = tested on: SN12C renal
M14 melanoma = tested on: M14 melanoma
MDA-MB-435 = tested on: MDA-MB-435
MDA-MB-231 breast = tested on: MDA-MB-231 breast
DU-145 prostate = tested on: DU-145 prostate
SF-295 CNS = tested on: SF-295 CNS
A498 renal = tested on: A498 renal
OVCAR-8 ovarian = tested on: OVCAR-8 ovarian
HL-60(TB) leukemia = tested on: HL-60(TB) leukemia
786-0 renal = tested on: 786-0 renal
TK-10 renal = tested on: TK-10 renal
MCF7 breast = tested on: MCF7 breast
KM12 colon = tested on: KM12 colon
EKVX NSCLC = tested on: EKVX NSCLC
SK-MEL-2 melanoma = tested on: SK-MEL-2 melanoma
PC-3 prostate = tested on: PC-3 prostate
SK-MEL-28 melanoma = tested on: SK-MEL-28 melanoma
MOLT-4 leukemia = tested on: MOLT-4 leukemia
SK-MEL-5 melanoma = tested on: SK-MEL-5 melanoma
NCI-H23 lung = tested on: NCI-H23 lung
HOP-62 NSCLC = tested on: HOP-62 NSCLC
SK-OV-3 ovarian = tested on: SK-OV-3 ovarian
BT-549 breast = tested on: BT-549 breast
MALME-3M melanoma = tested on: MALME-3M melanoma
HCC-2998 colon = tested on: HCC-2998 colon

Measured: TGI

CC(=O)OC1[C@H](n2ccnc2)C[C@H]2[C@@H]3CC=C4CC(N5CCCC5)CC[C@]4(C)[C@H]3CC[C@]12C (stereo partly specified)
41 µM: SF-295 CNS
54.7 µM: SK-MEL-2 melanoma
35.2 µM: SR leukemia
81.3 µM: HL-60(TB) leukemia
43.7 µM: RXF 393 renal
48.8 µM: MOLT-4 leukemia
82.3 µM: UACC-62 melanoma
36.8 µM: SF-539 CNS
60.4 µM: SK-MEL-28 melanoma
55.3 µM: UACC-257 melanoma
61.6 µM: M14 melanoma
38.1 µM: LOX IMVI melanoma
not listed: HOP-62 NSCLC | SK-OV-3 ovarian | BT-549 breast | MALME-3M melanoma | HCC-2998 colon
> 100 µM: all other assays above

O=[N+]([O-])c1ccc(O)c(C=NCC2CCCN3CCCCC23)c1 (stereo unspecified)
75.5 µM: SF-268 CNS
75.9 µM: COLO 205 colon
46.6 µM: HS 578T breast
89.1 µM: ACHN renal
69.9 µM: SK-MEL-5 melanoma
78.8 µM: UACC-62 melanoma
74.5 µM: HCC-2998 colon
53.2 µM: M14 melanoma
59.7 µM: RXF 393 renal
89.9 µM: NCI-H226 lung
not listed: SW-620 colon | CCRF-CEM leukemia | HOP-92 NSCLC | RPMI-8226 leukemia | U251 CNS | OVCAR-4 ovarian | SR leukemia | K-562 leukemia | SN12C renal | MDA-MB-435 | A498 renal | HL-60(TB) leukemia | SK-MEL-2 melanoma | SK-MEL-28 melanoma | MOLT-4 leukemia
> 100 µM: all other assays above
